Key:
[1] = test system: patient population of clinical trials of atypical antipsychotics; conditions: between sertindole, olanzapine and risperidone; cited from earlier work
[2] = test system: patients with schizophrenia; experiment: Sertindole Cohort Prospective (SCoP) study: fatal or non-fatal suicide attempts, sertindole vs risperidone; assay type: in vivo, human; conditions: for Committed or attempted suicide (rate/100 PYE): WRT period plus 30 days; for Hazard Ratio SERT as compared to RISP, committing or attempting suicide: Cox proportional hazards model adjusting for age, gender, history of suicide attempt, duration of schizophrenia; for Hazard ratio SERT/RISP, committed or attempted suicide: log-rank test, WRT plus 30 days
Text: The Sertindole Cohort Prospective (SCoP) study was designed as a multi-national, multi-centre, prospective, randomized, open-label, two parallel-group, active-controlled study in human subjects with schizophrenia. The objective of the study is to compare the safety of sertindole with the safety of another standard antipsychotic drug (in this case risperidone) under normal conditions of use. In addition, the study collects information on fatal or non-fatal suicide attempts. The study was initiated in 2002 and is still ongoing.
To ensure that the study population is representative of patients with schizophrenia, only a limited number of selection criteria are imposed. In particular, patients are required to fulfil the criteria specified in the SmPCs (Core Summary of Product Characteristics) for both sertindole and risperidone; they are not to have received either sertindole or risperidone as their treatment immediately before entering the study, and they require treatment with but a single anti-schizophrenia drug product.
The Sertindole Cohort Prospective (SCoP) study is a multinational, multi-centre, prospective, randomized, open-label, two parallel-group, active-controlled study in patients with schizophrenia. The objective of the study is to compare the safety of sertindole with the safety of another standard antipsychotic drug (in this case risperidone) under normal conditions of use. In addition, the study collects information on fatal or non-fatal suicide attempts. The study was initiated in 2002 and is still ongoing.
The data in the study are reported for different periods. The Only-Randomized-Treatment-Period (ORT) covers the time the patient is receiving antipsychotic monotherapy with the randomized trial medication. However, patients can also be treated in combination with another antipsychotic if this is clinically necessary. When the patient receives an additional antipsychotic, the patient is censored and the data are reported for the Whole-Randomized-Treatment period (WRT). The primary period for reporting is the so-called Whole-Randomized-Treatment+30 period (WRT+30), which covers the time during which the patient receives randomized treatment plus 30 days after treatment discontinuation. Finally, the period during which the patient is followed even after the treatment has been stopped is called the Whole-Follow-up-Period (WFP).
To ensure that the study population is representative of patients with schizophrenia, only a limited number of selection criteria are imposed. In particular, patients are required to fulfill the criteria specified in the SmPCs for both sertindole and risperidone; they are not to have received either sertindole or risperidone as their treatment immediately before entering the study, and they require treatment with but a single antipsychotic drug.
Throughout the treatment period patients are dosed according to the treatment recommendations in their respective SmPCs. […]
Regarding attempted suicide, the analysis comprised only those events for which the investigators confirmed that the patients actually tried to commit suicide. Events such as intentional overdose and intentional self-injury were clarified by the investigators and were not included in the analysis unless the investigators confirmed that they were real suicide attempts. The included events were coded as ‘suicide attempt’ in the database.
The above definition of attempted suicide has the advantage of making it possible combine this event with completed suicide and to analyze the time until either event occurs. This can be done since all patients are randomised to start new treatment with either sertindole or risperidone.
All events occurring in the Whole Randomised Treatment (WRT) period plus 30 days were considered for analysis, up until the data cut-off. The WRT period is the period from start to stop of randomised treatment. The null hypothesis of equality of hazards between treatment groups was tested using the log-rank test. […]

[3] = test system: A9 dopamine neurons (the nigrostriatal pathway); conditions: cited from earlier work
[4] = test system: patients with schizophrenia; experiment: Twelve-month open-label study of sertindole: time to sustained response; assay type: in vivo, human; conditions: 4-24 mg once daily for up to one year; 358 patients
Text: These findings are further corroborated by an exploratory analysis of clinical data obtained from a twelve-month open-label study ([…] et al., “Identification of Potential Predictors of Sertindole Response in Patients with Schizophrenia”, to be published). In line with the emerging consensus criteria for response to antipsychotic treatment in schizophrenia ([…] et al., Am J Psychiatry 162:441-449, March 2005), the objective of this exploratory analysis is to identify potential predictors of response to sertindole in patients with schizophrenia. The study assessed the safety and efficacy of sertindole doses (4-24 mg) administered once daily for up to one year in US patients with schizophrenia.

[5] = test system: serotonin 5-HT2 receptors; conditions: cited from earlier work
[6] = test system: A10 neurons (the mesolimbic and mesocortical pathways); conditions: cited from earlier work
[7] = test system: muscarinic receptors; conditions: cited from earlier work
[8] = test system: histaminergic receptors; conditions: cited from earlier work
[9] = test system: α2-adrenergic receptors; conditions: cited from earlier work
[10] = compared with haloperidol, fluphenazine and chlorpromazine; cited from earlier work
[11] = test system: α1-adrenergic receptors; conditions: cited from earlier work
[12] = target: dopamine D2 receptors (Homo sapiens, UniProt P14416); conditions: cited from earlier work
dopamine D2 receptors, sequence (P14416 whole entry): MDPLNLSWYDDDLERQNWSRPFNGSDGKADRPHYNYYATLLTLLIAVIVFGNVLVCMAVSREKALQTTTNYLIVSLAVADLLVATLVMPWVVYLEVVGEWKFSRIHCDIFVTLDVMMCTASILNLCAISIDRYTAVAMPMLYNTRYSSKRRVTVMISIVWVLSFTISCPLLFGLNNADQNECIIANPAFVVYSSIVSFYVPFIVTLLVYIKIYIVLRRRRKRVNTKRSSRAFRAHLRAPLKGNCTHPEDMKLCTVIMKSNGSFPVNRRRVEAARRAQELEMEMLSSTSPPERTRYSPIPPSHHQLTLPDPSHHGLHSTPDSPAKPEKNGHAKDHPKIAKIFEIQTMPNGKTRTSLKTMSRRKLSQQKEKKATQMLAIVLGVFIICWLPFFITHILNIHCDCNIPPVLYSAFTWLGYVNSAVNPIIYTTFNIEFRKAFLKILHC

SMILES: Cc1nc2n(c(=O)c1CCN1CCC(c3noc4cc(F)ccc34)CC1)CCCC2 [risperidone]
- Short-term (450 days) hazard functions (mortality) [1]: no obvious difference
- Event rate in risperidone group relative to sertindole group (times higher) ([2]; Cox proportional hazards model, data cut-off 11.1 2007): approximately 1.7 times
- Committed or attempted suicide (rate/100 PYE) ([2]; as of Nov. 1, 2006): 1.15 rate/100 PYE
- Committed or attempted suicide (rate/100 PYE) ([2]; as of Nov. 1, 2007): 0.92 rate/100 PYE
- Event rate in risperidone group relative to sertindole group (times higher) ([2]; data cut-off 11.1 2007, unadjusted): ~1.5 times
- Event rate in risperidone group relative to sertindole group (times higher) ([2]; data up until 11 Jan. 2006): ~1.5 times

SMILES: Cc1cc2c(s1)Nc1ccccc1N=C2N1CCN(C)CC1 [olanzapine]
- Short-term (450 days) hazard functions (mortality) [1]: no obvious difference

SMILES: O=C1NCCN1CCN1CCC(c2cn(-c3ccc(F)cc3)c3ccc(Cl)cc23)CC1 [sertindole]
- Depolarization inactivation in A9 dopamine neurons [3]: does not induce depolarization inactivation
- Patients achieving sustained response (CGI-S<=3 and CGI-I<=2, sustained at least 8 weeks) [4]: 125 patients
- Affinity for serotonin 5-HT2 receptors [5]: high affinity
- Short-term (450 days) hazard functions (mortality) [1]: no obvious difference
- Hazard Ratio SERT as compared to RISP, committing or attempting suicide ([2]; as of Nov. 1, 2007): approximately 0.6
- Hazard Ratio SERT as compared to RISP, committing or attempting suicide ([2]; as of Nov. 1, 2007, listed as SERT): 0.614
- Committed or attempted suicide (rate/100 PYE) ([2]; as of Nov. 1, 2006): 0.85 rate/100 PYE
- Committed or attempted suicide (rate/100 PYE) ([2]; as of Nov. 1, 2007): 0.62 rate/100 PYE
- Hazard ratio SERT/RISP, committed or attempted suicide ([2]; data cut-off 11.1 2007): approximately 0.7
- Hazard ratio SERT/RISP, committed or attempted suicide ([2]; data cut-off 11.1 2007, listed as SERT): 0.69
- Hazard ratio SERT/RISP, committed or attempted suicide ([2]; data up until 11 Jan. 2006): approximately 0.7
- Hazard ratio SERT/RISP, committed or attempted suicide ([2]; data up until 11 Jan. 2006, listed as SERT): 0.72
- Incidence of suicide attempts (both fatal and non-fatal) in comparison with risperidone ([2]; schizophrenic patients on maintenance dose sertindole therapy): reduced significantly
- Activity in A10 neurons [6]: retains activity
- Binding to muscarinic receptors [7]: limited binding
- Binding to histaminergic receptors [8]: limited binding
- Binding to α2-adrenergic receptors [9]: limited binding
- Adverse effects [10]: fewer adverse effects
- Affinity for α1-adrenergic receptors [11]: high affinity
- Affinity for dopamine D2 receptors [12]: high affinity

From US20070281925A1, “USE OF SERTINDOLE FOR THE PREVENTIVE TREATMENT OF SUICIDAL BEHAVIOUR” (H. Lundbeck A/S, priority 2006, published 2007)
